{"source": "patent US9604932B2", "about": "(priority 2013, dated 2017)", "key": {"[1]": {"assay": "Incubation of R-107 in mouse plasma, relative concentrations by HPLC", "format": "in vitro ADME", "details": "R-107 4 mM in mouse plasma, 37° C.", "procedure": "In an in vitro study, 2,2,5,5-tetramethyl-3-(nitrooxymethyl)pyrrolidin-1-yl acetate (R-107) was incubated in mouse or rat plasma at 37° C. at a concentration of 4 mM, and the relative concentrations of this compound as well as of its corresponding hydroxylamine, (1-hydroxy-2,2,5,5-tetramethylpyrrolidin-3-yl) methyl nitrate (R-105), and 3-nitratomethyl-2,2,5,5-tetramethylpyrrolidinyloxy (R-100), were measured by HPLC."}, "Density of R-107": {"assay": "Density of R-107", "format": "physicochemical", "set-up": "unit not given here", "details": "oil"}, "[2]": {"assay": "Conversion of prodrug upon exposure to plasma, biological solutions and tissues", "format": "in vitro ADME", "details": "stable oil until exposure to plasma"}, "[3]": {"system": "mice exposed to a lethal dose of E. coli lipopolysaccharide (LPS)", "assay": "Murine model of sepsis (lethal dose of E. coli LPS)", "format": "in vivo, Balb/c mice", "details": "protocol only; 0, 20, 40, or 80 mg/kg/day BID IP", "procedure": "In this study, Balb/c mice exposed to a lethal dose of E. coli lipopolysaccharide (LPS; 10 mg/kg IP) are treated with R-107 (0, 20, 40, or 80 mg/kg/day, BID IP), with the initial dose given 1 hour after LPS injection, and the mortality for the animal treated with LPS only (the control group) vs. that for the animals treated with the various doses of R-107 is compared.\nIn a satellite study, tissues and sera are collected at 16 hours, i.e., 15 hours after the first administration and 3 hours after the second administration of R-107, for analysis, and the level of creatinine, aspartate transminase (AST), alanine transaminase (ALT), bilirubin, amylase, lipase, and alkaline phosphatase (ALP), associated with kidney, pancreas, and liver functioning are measured."}, "[4]": {"system": "Pseudomonas aeruginosa (PSA)-induced septic pneumonia", "assay": "Sheep model of septic pneumonia", "format": "in vivo, Merino sheep", "details": "protocol only; total 80 mg/kg BID IV", "source_text": "In this study, a model of sheep suffering from Pseudomonas aeruginosa (PSA)-induced septic pneumonia and consequent pulmonary dysfunction is used. Female Merino sheep are operatively instrumented for chronic study with Swan-Ganz®, i.e., pulmonary artery, and femoral artery catheters, and are randomly allocated to vehicle control or R-107 treatment group. Smoke inhalation injury (48 breaths of cotton smoke) is induced and 2.4×10^11 colony-forming units (CFU) of PSA are instilled in the lung via bronchoscope under general anesthesia. The animal in the treatment group are intravenously (IV) administered with a total of 80 mg/kg of R-107 BID. Ringer's lactate solution is titrated IV to maintain hematocrit (hct) at baseline±3%. Measurements are taken at baseline and every 3 hours during the 24 hours study period. Data are expressed as mean±SEM. Statistical analysis: two-way ANOVA and Bonferroni post hoc comparison. A p-value <0.05 is considered as statistically significant."}, "[5]": {"system": "pulmonary hypertension of the newborn (PPHN)", "assay": "Lamb model of pulmonary hypertension of the newborn", "format": "in vivo, newborn lambs", "details": "protocol only; 0.3, 1.0, 3.0 mg/kg/h IV", "procedure": "In this study, a prospective, placebo-controlled, dose-escalation, randomized study is carried out in anesthetized, mechanically-ventilated, and muscle-relaxed newborn lambs wherein pulmonary hypertension of the newborn (PPHN) has been induced by in utero ligation of the ductus arteriosus. This clinically-relevant gold-standard model is characterized by severe PAH that is poorly responsive to inhaled nitric oxide (iNO), thus reflecting the 30-50% of clinical PPHN non-responders to clinical iNO therapy. R-107 (0, 0.3, 1.0, and 3.0 mg/kg/h IV; n=6 per group) is compared to iNO (40 ppm; n=6) over a 6 hour period of observation. Hemodynamic parameters are monitored for response to treatment and post-treatment rebound pulmonary arterial hypertension. The activity of R-107 is related to its plasma concentration, in order to construct a pharmacodynamic profile."}, "[6]": {"system": "retinal ischemia-reperfusion injury", "assay": "Murine model of retinal ischemia-reperfusion injury", "format": "in vivo, C57BL/6 mice", "details": "protocol only; 30 mg/kg/day IP BID", "procedure": "In this study, the efficacy of R-107 in subacute murine model of retinal ischemia-reperfusion injury is tested, using male C57BL/6 mice (n=10 per group). Briefly, the anterior chamber of the right eye is cannulated with a 30 gauge needle attached to a line infusing sterile saline. The intraocular pressure (IOP) is raised to 110 mmHg by elevating the saline reservoir. The left eye undergoes sham surgery, in which the needle is inserted into the anterior chamber without elevating IOP. R-107 is injected (30 mg/kg/day IP BID) commencing directly before reperfusion. 2 vehicle controls (normal saline and HPCD) is compared to drug therapy. Treatments are repeated twice daily thereafter until sacrifice. The outcome of these pharmacologic studies is quantitatively assessed by using terminal deoxynucleotidyl transferase dUTP nick end labeling (TUNEL) to measure retinal cell death (after 3 days), confocal imaging to quantify survival of ganglion cell layer neurons (after 7 days), and electroretinogram recordings to measure retinal neuronal function (after 21 days)."}, "[7]": {"system": "acute retinal ischemia-reperfusion injury", "assay": "Porcine model of acute retinal ischemia-reperfusion injury", "format": "in vivo", "details": "protocol only; 10, 30, 80 mg/kg/day IV BID", "procedure": "In this study, a porcine model of acute retinal ischemia-reperfusion injury (n=6 per group) is induced by equilibration with an elevated saline reservoir to create a static IOP of 90 mmHg for 90 min. Task #1: Microvascular responsiveness: A dose-response of parenteral R-107 (0, 10, 30, 80 mg/kg/day IV BID) is initiated 10 minutes before reperfusion. 1 hour after reperfusion, retinal microvessels are harvested and cannulated for ex vivo analysis of vascular responsiveness to endothelium dependent and independent vasodilators. Task #2: Retinal function and morphology: R-107 is given 10 minutes before reperfusion (at a dose determined by Task #1) and its efficacy judged by electroretinogram (1, 2, 7 days post-reperfusion) and retinal histology, ultrastructure, and drug concentration (Day 7)."}, "[8]": {"system": "erectile dysfunction (ED)", "assay": "Rat model of erectile dysfunction", "format": "in vivo, Sprague-Dawley rats", "details": "protocol only; 80 mg/kg/day BID IV"}}, "data": [{"smiles": "CC(=O)ON1C(C)(C)CC(CO[N+](=O)[O-])C1(C)C", "note": "(centres unmarked) [R-107, 2,2,5,5-tetramethyl-3-(nitrooxymethyl)pyrrolidin-1-yl acetate]", "values": [{"measurement": "Relative concentration of R-107", "setting": "[1]; 0.1 hrs", "value": 326}, {"measurement": "Relative concentration of R-107", "setting": "[1]; 1.5 hrs", "value": 284}, {"measurement": "Relative concentration of R-107", "setting": "[1]; 20 hrs", "value": 0}, {"measurement": "Density", "setting": "Density of R-107", "value": 1.12}, {"measurement": "Stability / conversion upon exposure to plasma", "setting": "[2]", "value": "readily converted to its corresponding 1-pyrrolidinyloxy derivative R-100"}, {"measurement": "Efficacy in murine model of sepsis", "setting": "[3]", "value": "Effective"}, {"measurement": "Efficacy in sheep model of septic pneumonia", "setting": "[4]", "value": "Effective"}, {"measurement": "Efficacy in lamb model of pulmonary hypertension of the newborn", "setting": "[5]", "value": "Effective"}, {"measurement": "Efficacy in murine model of retinal ischemia-reperfusion injury", "setting": "[6]", "value": "Effective"}, {"measurement": "Efficacy in porcine model of acute retinal ischemia-reperfusion injury", "setting": "[7]", "value": "Effective"}, {"measurement": "Efficacy in rat model of erectile dysfunction", "setting": "[8]", "value": "Effective"}]}]}
